Experiment: Displacement of [3H]mesulergine from pig cortex 5-hydroxytryptamine 1C receptor

Row | SMILES | IC50 [nM]
1 | NCCc1c[nH]c2ccc(Cc3nc(N)no3)cc12 | 3160
2 | CC(=O)Nc1ccc(Cc2noc(-c3ccc4[nH]cc(CCN)c4c3)n2)cc1 | 1580
3 | COc1ccc(Cc2noc(-c3ccc4[nH]cc(CCN)c4c3)n2)cc1 | 794
4 | NCCc1c[nH]c2ccc(-c3nc(C4CC4)no3)cc12 | 1000
5 | CN(C)CCc1c[nH]c2ccc(Cc3nc(N)ns3)cc12 | 251
6 | NCCc1c[nH]c2ccc(CCc3nc(Cc4ccccc4)no3)cc12 | 794
7 | Cc1noc(-c2ccc3[nH]cc(CCN)c3c2)n1 | 1260
8 | NCCc1c[nH]c2ccc(-c3nc(Cc4ccccc4)no3)cc12 | 3980
9 | Cc1noc(Cc2ccc3[nH]cc(CCN(C)C)c3c2)n1 | 1000
10 | Cc1noc(Cc2ccc3[nH]cc(CCN)c3c2)n1 | 1260
11 | CN(C)CCc1c[nH]c2ccc(CCc3nc(N)no3)cc12 | 1000
12 | CS(=O)(=O)Nc1ccc(Cc2noc(-c3ccc4[nH]cc(CCN)c4c3)n2)cc1 [L-694247] | 316

— BindingDB's records for doi:10.1021/jm00063a003 (Merck Sharp and Dohme Research Laboratories, 1993)
